Results published in patent US20260200939A1, “MOLECULAR GLUE DEGRADER COMPOUNDS AND USES THEREOF” (Novartis AG, priority 2022, published 2026).

Tests used:
Recombinant RNF126 = target: T1, Recombinant RNF126 (Homo sapiens, UniProt Q9BV68); assay: RNF126 Binding Assay, gel-based ABPP
T1 construct: FLAG (C); host or cells: HEK293T
Summary of the method: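 FLAG-tagged human RNF126, expressed in HEK293T and purified on anti-FLAG resin, was pretreated with DMSO or covalent ligand for 30 min at 37 °C in PBS. IA-rhodamine was then added for 1 h at RT in the dark. Probe labelling was read by SDS-PAGE in-gel fluorescence.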

pure RNF126 protein = target: T2, pure RNF126 protein (Homo sapiens, UniProt Q9BV68); assay: Mass spectrometry analysis of compound-labeled RNF126 tryptic digests; assay type: binding
T2 construct: FLAG (C); host or cells: HEK293T

CDK4 = target: T3, CDK4 (Homo sapiens, UniProt P11802); assay: RNF126 knockdown study of CDK4 degradation in C33A cells; assay type: cell-based
T3 construct: endogenous in cells; host or cells: C33A
Procedure: Proteins were resolved by SDS/PAGE and transferred to nitrocellulose membranes using the Trans-Blot Turbo transfer system (Bio-Rad). Membranes were blocked with 5% BSA in Tris-buffered saline containing Tween 20 (TBS-T) solution for 30 min at RT, washed in TBS-T, and probed with primary antibody diluted in recommended diluent per manufacturer overnight at 4° C. After 3 washes with TBS-T, the membranes were incubated in the dark with IR680- or IR800-conjugated secondary antibodies at 1:10,000 dilution in 5% BSA in TBS-T at RT for 1 h. After 3 additional washes with TBST, blots were visualized using an Odyssey Li-Cor fluorescent scanner. The membranes were stripped using ReBlot Plus Strong Antibody Stripping Solution (EMD Millipore) when additional primary antibody incubations were performed. Antibodies used in this study were CDK4 (Abcam ab108357), Vinculin (Abcam ab129002), GAPDH (Cell Signaling Technology 14C10), RNF126 (Santa Cruz Biotechnology sc-376005), BRD4 (Abcam ab128874), Beta Actin (Cell Signaling Technology 13E5), PDE5 (Abcam ab259945), AR-V7 (Abcam ab273500), c-Abl (Santa Cruz Biotechnology sc-23), SMARCA2 (Abcam ab240648), LRRK2 (Abcam ab133474), BTK (Cell Signaling Technology D3H5), Androgen Receptor (Abcam ab133273).
Short-hairpin oligonucleotides were used to knock down the expression of RNF126 in C33A cells. […]

[1] = target: T4, cysteine 32 (C32) on the RING-family E3 ubiquitin ligase RNF126 (Homo sapiens, UniProt Q9BV68); assay: isoTOP-ABPP chemoproteomic profiling in C33A cells; assay type: cell-based; conditions: C33A cells treated in situ
T4 construct: endogenous in cells; host or cells: C33A
Procedure: IsoTOP-ABPP studies were done as previously reported (Weerapana, E. et al. Nature 468, 790-795 (2010); Spradlin, J. N. et al. Nat. Chem. Biol. 15, 747-755 (2019); Grossman, E. A. et al. Cell Chem. Biol. 24, 1368-1376.e4 (2017)). All of the isoTOP-ABPP datasets were prepared as described below using the IA-alkyne probe. Cells were lysed by probe sonication in PBS and protein concentrations were measured by BCA assay. Cells were treated for 2 h with either DMSO vehicle or compound before cell collection and lysis. Proteomes were subsequently labeled with IA-alkyne labeling (200 μM) for 1 h at room temperature. CuAAC was used by sequential addition of tris(2-carboxyethyl)phosphine (1 mM, Strem, 15-7400), tris[(1-benzyl-1H-1,2,3-triazol-4-yl)methyl]amine (34 μM, Sigma, 678937), copper(II) sulfate (1 mM, Sigma, 451657) and biotin-linker-azide—the linker functionalized with a tobacco etch virus (TEV) protease recognition sequence as well as an isotopically light or heavy valine for treatment of control or treated proteome, respectively. After CuAAC, proteomes were precipitated by centrifugation at 6,500 g, washed in ice-cold methanol, combined in a 1:1 control:treated ratio, washed again, then denatured and resolubilized by heating in 1.2% SDS-PBS to 90° C. for 5 min. Insoluble components were precipitated by centrifugation at 6,500 g and soluble proteome was diluted in 5 ml 0.2% SDS-PBS. […]

LRRK2 = target: T5, LRRK2 (Homo sapiens, UniProt Q5S007); assay: LRRK2 loss in A549 lung cancer cells, Western blotting; assay type: cell-based
T5 construct: endogenous in cells; host or cells: A549
Procedure: (§1) C33A cells were purchased from American Type Culture Collection (ATCC) and were cultured in Dulbecco's Modified Eagle Medium (DMEM) containing 10% (v/v) fetal bovine serum (FBS) and maintained at 37° C. with 5% CO2. 22RV1 cells were purchased from the ATCC and were cultured in RPMI-1640 Medium containing 10% (v/v) FBS and maintained at 37° C. with 5% CO2. HEK293T cells were obtained from the UC Berkeley Cell Culture Facility and were cultured in DMEM containing 10% (v/v) FBS and maintained at 37° C. with 5% CO2. K562 cells were obtained from the UC Berkeley Cell Culture Facility and were cultured in Iscove's Modified Dulbecco's Medium (IMDM) containing 10% (v/v) FBS and maintained at 37° C. with 5% CO2. MV-4-11 cells were obtained from the ATCC and were cultured in IMDM containing 10% (v/v) FBS and maintained at 37° C. with 5% CO2. A549 cells were obtained from the ATCC and were cultured in F-12K Medium containing 10% (v/v) FBS and maintained at 37° C. with 5% CO2. Mino cells were obtained from the ATCC and were cultured in RPMI-1640 Medium containing 10% (v/v) FBS and maintained at 37° C. with 5% CO2. […]
(§2) Cells were washed twice with cold PBS, scraped, and pelleted by centrifugation (700 g, 5 min, 4° C.). […] Proteome concentrations were determined using BCA assay and lysate was diluted to appropriate working concentrations. […]

PDE5 = target: T6, PDE5 (Homo sapiens, UniProt O76074); assay: PDE5 degradation in HEK293T cells, Western blotting; assay type: cell-based
T6 construct: endogenous in cells; host or cells: HEK293T
Procedure: as §1, §2

c-ABL kinase = target: T7, c-ABL kinase (Homo sapiens, UniProt P00519); assay: c-ABL degradation, Western blotting; assay type: cell-based
T7 construct: endogenous in cells; host or cells: K562 (inferred)
Procedure: as §1, §2

BCR-ABL = target: T8, BCR-ABL (Homo sapiens, UniProt P00519); assay: BCR-ABL degradation, Western blotting; assay type: cell-based
T8 construct: BCR (N-terminal part of P11274, natural fusion partner); endogenous in cells; host or cells: K562 (inferred); the other entry of the earlier key: BCR (P11274, Breakpoint cluster region protein)
Procedure: as §1, §2

T1 sequence (Q9BV68 whole entry): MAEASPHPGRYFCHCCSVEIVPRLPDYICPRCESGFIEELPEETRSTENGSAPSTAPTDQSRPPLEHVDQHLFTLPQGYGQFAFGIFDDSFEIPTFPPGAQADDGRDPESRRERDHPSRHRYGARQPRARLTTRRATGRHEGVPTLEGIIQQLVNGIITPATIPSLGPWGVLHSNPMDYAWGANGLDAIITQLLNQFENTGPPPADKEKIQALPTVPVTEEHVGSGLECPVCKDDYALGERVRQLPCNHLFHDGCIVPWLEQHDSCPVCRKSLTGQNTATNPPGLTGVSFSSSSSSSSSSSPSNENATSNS
T7 sequence (P00519 whole entry): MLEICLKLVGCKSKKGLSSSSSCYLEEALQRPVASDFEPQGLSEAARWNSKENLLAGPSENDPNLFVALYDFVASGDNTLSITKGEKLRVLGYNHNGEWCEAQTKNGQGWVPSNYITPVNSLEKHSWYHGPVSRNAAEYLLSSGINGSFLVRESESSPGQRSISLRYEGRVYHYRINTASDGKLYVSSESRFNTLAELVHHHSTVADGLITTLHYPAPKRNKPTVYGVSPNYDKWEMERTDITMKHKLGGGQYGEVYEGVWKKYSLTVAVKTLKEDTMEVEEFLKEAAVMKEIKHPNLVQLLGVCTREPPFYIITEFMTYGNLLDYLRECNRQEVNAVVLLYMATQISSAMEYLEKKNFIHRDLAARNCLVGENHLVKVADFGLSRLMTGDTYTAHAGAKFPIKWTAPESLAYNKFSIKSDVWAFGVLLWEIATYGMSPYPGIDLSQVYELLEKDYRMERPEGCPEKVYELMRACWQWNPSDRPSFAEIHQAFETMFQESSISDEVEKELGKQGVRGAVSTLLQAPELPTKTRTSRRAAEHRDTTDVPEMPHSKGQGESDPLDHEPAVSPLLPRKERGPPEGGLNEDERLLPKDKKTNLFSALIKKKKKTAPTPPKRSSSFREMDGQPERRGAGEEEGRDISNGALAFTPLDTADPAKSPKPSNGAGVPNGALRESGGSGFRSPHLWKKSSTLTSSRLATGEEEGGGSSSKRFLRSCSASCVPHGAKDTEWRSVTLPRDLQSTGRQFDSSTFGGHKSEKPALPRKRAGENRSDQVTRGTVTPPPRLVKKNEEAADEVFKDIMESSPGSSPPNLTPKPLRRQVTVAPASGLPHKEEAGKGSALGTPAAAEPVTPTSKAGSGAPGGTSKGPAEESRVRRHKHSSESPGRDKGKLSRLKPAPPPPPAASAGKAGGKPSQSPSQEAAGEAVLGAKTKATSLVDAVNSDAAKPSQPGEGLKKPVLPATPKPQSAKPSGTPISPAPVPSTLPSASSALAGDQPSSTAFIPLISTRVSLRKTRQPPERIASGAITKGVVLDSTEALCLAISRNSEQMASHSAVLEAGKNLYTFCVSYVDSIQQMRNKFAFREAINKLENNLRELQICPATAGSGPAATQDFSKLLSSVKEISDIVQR
T5 sequence (Q5S007 whole entry): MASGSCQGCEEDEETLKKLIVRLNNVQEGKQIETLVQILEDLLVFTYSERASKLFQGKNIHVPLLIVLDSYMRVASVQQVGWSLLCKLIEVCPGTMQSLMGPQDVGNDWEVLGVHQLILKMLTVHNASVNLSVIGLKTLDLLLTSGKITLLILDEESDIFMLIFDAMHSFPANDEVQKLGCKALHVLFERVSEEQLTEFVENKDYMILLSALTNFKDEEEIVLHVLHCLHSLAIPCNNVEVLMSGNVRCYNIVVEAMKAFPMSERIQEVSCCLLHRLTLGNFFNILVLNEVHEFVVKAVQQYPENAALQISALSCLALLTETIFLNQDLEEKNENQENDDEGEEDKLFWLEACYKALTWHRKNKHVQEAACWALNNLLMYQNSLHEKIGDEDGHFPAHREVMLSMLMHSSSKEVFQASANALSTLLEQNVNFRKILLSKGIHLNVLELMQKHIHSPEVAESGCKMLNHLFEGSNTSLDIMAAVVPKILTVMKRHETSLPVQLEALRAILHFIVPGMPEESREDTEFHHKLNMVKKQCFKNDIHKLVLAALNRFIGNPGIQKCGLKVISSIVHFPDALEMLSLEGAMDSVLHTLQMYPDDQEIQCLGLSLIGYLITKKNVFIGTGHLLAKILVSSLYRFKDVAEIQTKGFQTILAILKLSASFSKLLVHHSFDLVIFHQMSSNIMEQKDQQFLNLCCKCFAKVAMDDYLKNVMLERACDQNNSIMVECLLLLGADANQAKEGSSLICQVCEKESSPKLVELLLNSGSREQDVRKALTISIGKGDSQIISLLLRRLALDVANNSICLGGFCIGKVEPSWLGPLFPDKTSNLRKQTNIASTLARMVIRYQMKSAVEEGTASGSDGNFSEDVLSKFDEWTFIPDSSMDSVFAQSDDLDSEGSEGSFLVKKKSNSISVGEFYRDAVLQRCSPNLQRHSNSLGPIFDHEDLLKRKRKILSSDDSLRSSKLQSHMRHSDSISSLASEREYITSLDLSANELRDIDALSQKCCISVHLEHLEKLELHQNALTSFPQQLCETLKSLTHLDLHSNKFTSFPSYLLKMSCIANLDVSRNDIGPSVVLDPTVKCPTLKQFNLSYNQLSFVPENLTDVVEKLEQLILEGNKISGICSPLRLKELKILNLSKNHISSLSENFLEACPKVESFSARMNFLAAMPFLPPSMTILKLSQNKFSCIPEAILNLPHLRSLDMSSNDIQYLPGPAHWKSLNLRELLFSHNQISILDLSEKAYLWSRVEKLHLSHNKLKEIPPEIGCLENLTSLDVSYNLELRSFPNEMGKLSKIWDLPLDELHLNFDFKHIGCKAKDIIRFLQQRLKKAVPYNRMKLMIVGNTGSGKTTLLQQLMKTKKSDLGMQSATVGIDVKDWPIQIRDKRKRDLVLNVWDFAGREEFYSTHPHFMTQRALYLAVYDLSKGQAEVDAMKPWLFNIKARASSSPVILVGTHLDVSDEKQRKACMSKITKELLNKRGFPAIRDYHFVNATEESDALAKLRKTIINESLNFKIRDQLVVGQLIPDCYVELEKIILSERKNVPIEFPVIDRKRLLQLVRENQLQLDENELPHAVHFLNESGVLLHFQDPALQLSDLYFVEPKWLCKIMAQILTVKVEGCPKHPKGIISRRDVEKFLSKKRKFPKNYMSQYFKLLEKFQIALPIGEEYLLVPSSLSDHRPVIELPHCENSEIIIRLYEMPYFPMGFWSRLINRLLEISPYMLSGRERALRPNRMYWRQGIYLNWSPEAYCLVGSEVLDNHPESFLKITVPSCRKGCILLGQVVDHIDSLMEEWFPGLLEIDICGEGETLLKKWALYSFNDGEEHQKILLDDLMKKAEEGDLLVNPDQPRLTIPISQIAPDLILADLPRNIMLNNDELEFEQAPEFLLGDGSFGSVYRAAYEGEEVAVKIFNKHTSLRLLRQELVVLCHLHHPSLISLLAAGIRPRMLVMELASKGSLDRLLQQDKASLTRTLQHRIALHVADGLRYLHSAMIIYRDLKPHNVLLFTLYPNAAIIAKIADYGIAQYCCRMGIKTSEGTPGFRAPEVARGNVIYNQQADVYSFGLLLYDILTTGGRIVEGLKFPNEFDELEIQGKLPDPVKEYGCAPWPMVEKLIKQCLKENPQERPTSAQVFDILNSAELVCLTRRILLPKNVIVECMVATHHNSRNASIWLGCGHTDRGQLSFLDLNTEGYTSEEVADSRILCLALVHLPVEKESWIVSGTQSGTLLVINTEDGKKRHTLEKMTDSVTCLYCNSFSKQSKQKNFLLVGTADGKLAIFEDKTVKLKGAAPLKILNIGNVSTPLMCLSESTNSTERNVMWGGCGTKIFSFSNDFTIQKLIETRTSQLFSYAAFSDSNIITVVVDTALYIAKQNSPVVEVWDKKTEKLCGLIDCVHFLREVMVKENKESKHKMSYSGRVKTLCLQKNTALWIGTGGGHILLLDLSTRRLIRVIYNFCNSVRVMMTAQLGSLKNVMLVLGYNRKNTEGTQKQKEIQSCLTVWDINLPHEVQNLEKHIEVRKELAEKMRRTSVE
T2 sequence (Q9BV68 whole entry): as the sequence (Q9BV68 whole entry) above

CN(C)C(=O)c1cc2cnc(Nc3ccc(N4CCN(C(=O)/C=C/c5ccc(C(F)(F)F)cc5)CC4)cn3)nc2n1C1CCCC1 [Compound 106]
binding to RNF126 (gel-based ABPP), in words (Recombinant RNF126): confirms the interaction of Compound 106 with RNF126 | adduct on RNF126 by mass spectrometry of tryptic digests (pure RNF126 protein): mass adduct of Compound 106 on pure RNF126 protein is observed | effect of RNF126 knockdown on compound-mediated CDK4 degradation (CDK4): completely attenuated | cysteine engaged across the proteome (isoTOP-ABPP) [1]: covalently binds to cysteine 32 (C32)

CNc1nc(Nc2ccc(C(=O)N3CCN(C(=O)/C=C/C(=O)c4ccc(OC)cc4)CC3)cc2OC)ncc1Cl [Compound 129]
binding to RNF126 (gel-based ABPP), in words (Recombinant RNF126): potent binding | loss of LRRK2, in words (LRRK2): loss of LRRK2 in A549 lung cancer cells in a dose-responsive manner

CCCc1nn(C)c2c(=O)[nH]c(-c3cc(S(=O)(=O)N4CCN(C(=O)/C=C/C(=O)c5ccc(OC)cc5)CC4)ccc3OCC)nc12 [Compound 127]
binding to RNF126 (gel-based ABPP), in words (Recombinant RNF126): potent binding | degradation of PDE5, in words (PDE5): degradation of PDE5 in HEK293T cells in a dose-responsive and proteasome-dependent manner

COc1ccc(C(=O)/C=C/C(=O)N2CCN(c3cc(Nc4ncc(C(=O)Nc5c(C)cccc5Cl)s4)nc(C)n3)CC2)cc1 [Compound 126]
binding to RNF126 (gel-based ABPP), in words (Recombinant RNF126): potent binding | degradation of c-ABL kinase, in words (c-ABL kinase): degradation of both BCR-ABL and c-ABL kinase in a dose-responsive manner | degradation of BCR-ABL, in words (BCR-ABL): degradation of both BCR-ABL and c-ABL kinase in a dose-responsive manner
